Values after ≈ are worked out from the molar mass of the structure shown. Counter-ions that a name gives are not always drawn.
Columns and labels:
[1] = Solubility of each hydrochloride in purified water; type: physicochemical
Protocol: A corresponding camptothecin-21-(2-dimethylamino) ethylamide derivative (100-200 mg) was added with an aqueous 0.1 N HCl solution (1.05 eq.) and dissolved, if necessary, further by adding purified water. The solution was filtered using MILLEX-GV ([…] Filter Unit), and the filtrate was lyophilized to give the desired hydrochloride.
Table 1: Solubility of each hydrochloride in purified water

[2] = system: mouse leukemia L1210; experiment: Anti-tumor activity: life prolonging effect in mice transplanted intraperitoneally with mouse leukemia L1210 (T/C%); type: in vivo; details: for Anti-tumor activity (T/C%): i.p. day 1, 5 and 9; for Anti-tumor activity: fraction in parentheses after T/C% (meaning not given): group of six mice
Protocol: 5×10^5 cells of mouse leukemia L1210 were transplanted intraperitoneally to a group of six female CDP1 mice (7 weeks old, body weight 17-19 g). A test substance was administered intraperitoneally on day 1, 5 and 9, and its life prolonging effect was observed. In a case of the administration of a test substance as an acid addition salt, it was dissolved in purified water. The total administration amount was 1.56-400 mg/kg. The anti-tumor activity was expressed by the value (T/C%) in which the ratio of the mean survival days of a drug administered group (T) to the mean survival days of a not administered group (C) is multiplied by 100.

[3] = Stability test in water at each pH (phosphate buffer, HPLC); type: physicochemical; details: for Amount of the compound in test solution: room temperature (about 26° C.)
Protocol: 1) Preparation of calibration curve:
1.05 mg of the compound 1 and 1.10 mg of the compound A (Note) were measured, dissolved in acetonitrile 10 ml to give a standard solution. 20 μl of the standard solution was tested by HPLC method (procedure condition 1). The peak area of the compound 1 and the compound A (Note), which is obtained from the chromatograph of the standard solution is measured by an automatic integration method, and the obtained area is plotted against an amount of the compound 1 and the compound A (2.1 μg and 2.2 μg) by 20 μl to prepare a calibration curve.
[HPLC method, procedure condition 1]
Column: Inertsil ODS-3 (5-250), 40 deg.
Mobile phase: 0.01 M potassium dihydrogenphosphate-acetonitrile (3:1)
Detection: UV absorptiometer (254 nm)
About 1 mg (×3) of the compound 1 were measured, dissolved adding a phosphate buffer 10 ml of pH 10.0, 7.0 or 5.4, stirred at room temperature (about 26° C.) to make a test solution. As to each 20 μl of the test solution at the time of dissolution, 3 hr later and 24 hr later, the tests were carried out by the HPLC method (procedure condition 1). The amounts of the compound 1 were measured from the obtained area. The amounts of the compound A in each pH were measured.
The amounts (μg/ml) of the compound 1 and the compound A at the time of dissolution, 3 hr later and 24 hr later in each pH are shown in Table 7.

CCNC(=O)OCc1c([C@@](O)(CC)C(=O)NCCN(C)C)cc2n(c1=O)Cc1c-2nc2ccccc2c1CC [Compound 2, 7-Ethyl-17-ethylcarbamoyloxycamptothecin-21-(2-dimethylamino)ethylamide]
solubility [1]: ~14 mg/mL (≈ 26.1 mM)

CCCNC(=O)OCc1c([C@@](O)(CC)C(=O)NCCN(C)C)cc2n(c1=O)Cc1c-2nc2ccccc2c1CC [Compound 3, 7-Ethyl-17-n-propylcarbamoyloxycamptothecin-21-(2-dimethylamino)ethylamide]
solubility [1]: ~11 mg/mL (≈ 20 mM) | Anti-tumor activity (T/C%) ([2]; Table 2, total dose 3.13 mg/kg): 100% | Anti-tumor activity (T/C%) ([2]; Table 2, total dose 6.25 mg/kg): 100% | Anti-tumor activity (T/C%) ([2]; Table 2, total dose 12.5 mg/kg): 139% | Anti-tumor activity (T/C%) ([2]; Table 2, total dose 25 mg/kg): 142% | Anti-tumor activity (T/C%) ([2]; Table 2, total dose 50 mg/kg): 147% | Anti-tumor activity (T/C%) ([2]; Table 2, total dose 100 mg/kg): 147% | Anti-tumor activity (T/C%) ([2]; Table 2, total dose 200 mg/kg): 147%

CCc1c2c(nc3ccccc13)-c1cc([C@@](O)(CC)C(=O)NCCN(C)C)c(COC(=O)NC(C)C)c(=O)n1C2 [Compound 4, 7-Ethyl-17-iso-propylcarbamoyloxycamptothecin-21-(2-dimethylamino)ethylamide]
solubility [1]: ~50 mg/mL (≈ 91 mM) | Anti-tumor activity (T/C%) ([2]; Table 4, total dose 3.13 mg/kg): 121% | Anti-tumor activity (T/C%) ([2]; Table 4, total dose 6.25 mg/kg): 123% | Anti-tumor activity (T/C%) ([2]; Table 4, total dose 12.5 mg/kg): 121% | Anti-tumor activity (T/C%) ([2]; Table 4, total dose 25 mg/kg): 123% | Anti-tumor activity (T/C%) ([2]; Table 4, total dose 50 mg/kg): 149% | Anti-tumor activity (T/C%) ([2]; Table 4, total dose 100 mg/kg): 205% | Anti-tumor activity: fraction in parentheses after T/C% (meaning not given) ([2]; Table 4, total dose 200 mg/kg): 1/6 | Anti-tumor activity (T/C%) ([2]; Table 4, total dose 200 mg/kg): 323%

CCCCNC(=O)OCc1c([C@@](O)(CC)C(=O)NCCN(C)C)cc2n(c1=O)Cc1c-2nc2ccccc2c1CC [Compound 5, 17-n-Butylcarbamoyloxy-7-ethylcamptothecin-21-(2-dimethylamino)ethylamide]
solubility [1]: ~10 mg/mL (≈ 17.7 mM)

CCc1c2c(nc3ccccc13)-c1cc([C@@](O)(CC)C(=O)NCCN(C)C)c(COC(=O)NC3CCCCC3)c(=O)n1C2 [Compound 6, 7-Ethyl-17-c-hexylcarbamoyloxycamptothecin-21-(2-dimethylamino)ethylamide]
solubility [1]: ~50 mg/mL (≈ 84.8 mM)

CCc1c2c(nc3ccccc13)-c1cc([C@@](O)(CC)C(=O)NCCN(C)C)c(COC(=O)Nc3ccccc3)c(=O)n1C2 [Compound 7, 7-Ethyl-17-phenylcarbamoyloxycamptothecin-21-(2-dimethylamino)ethylamide]
solubility [1]: ~15 mg/mL (≈ 25.7 mM)

CCc1c2c(nc3ccccc13)-c1cc([C@@](O)(CC)C(=O)NCCN(C)C)c(COC(=O)Nc3ccccc3F)c(=O)n1C2 [Compound 8, 7-Ethyl-17-(2-fluorophenylcarbamoyloxy)-camptothecin-21-(2-dimethylamino)ethylamide]
solubility [1]: ~11 mg/mL (≈ 18.3 mM)

CCc1c2c(nc3ccccc13)-c1cc([C@@](O)(CC)C(=O)NCCN(C)C)c(COC(=O)Nc3cccc(F)c3)c(=O)n1C2 [Compound 9, 7-Ethyl-17-(3-fluorophenylcarbamoyloxy)-camptothecin-21-(2-dimethylamino)ethylamide]
solubility [1]: ~28 mg/mL (≈ 46.5 mM)

CCc1c2c(nc3ccccc13)-c1cc([C@@](O)(CC)C(=O)NCCN(C)C)c(COC(=O)Nc3ccc(F)cc3)c(=O)n1C2 [Compound 10, 7-Ethyl-17-(4-fluorophenylcarbamoyloxy)-camptothecin-21-(2-dimethylamino)ethylamide]
solubility [1]: ~7 mg/mL (≈ 11.6 mM) | Anti-tumor activity (T/C%) ([2]; Table 4, total dose 3.13 mg/kg): 115% | Anti-tumor activity (T/C%) ([2]; Table 4, total dose 6.25 mg/kg): 118% | Anti-tumor activity (T/C%) ([2]; Table 4, total dose 12.5 mg/kg): 123% | Anti-tumor activity (T/C%) ([2]; Table 4, total dose 25 mg/kg): 136% | Anti-tumor activity (T/C%) ([2]; Table 4, total dose 50 mg/kg): 174% | Anti-tumor activity (T/C%) ([2]; Table 4, total dose 100 mg/kg): 221% | Anti-tumor activity (T/C%) ([2]; Table 4, total dose 200 mg/kg): 310%

CCc1c2c(nc3ccccc13)-c1cc([C@@](O)(CC)C(=O)NCCN(C)C)c(COC(=O)Nc3cccc4ccccc34)c(=O)n1C2 [Compound 11, 7-Ethyl-17-(1-naphthylcarbamoyloxy)-camptothecin-21-(2-dimethylamino)ethylamide]
solubility [1]: ~5 mg/mL (≈ 7.89 mM)

CCc1c2c(nc3ccccc13)-c1cc([C@@](O)(CC)C(=O)NCCN(C)C)c(COC(=O)N(CC)CC)c(=O)n1C2 [Compound 15, 17-Diethylcarbamoyloxy-7-ethylcamptothecin-21-(2-dimethylamino)ethylamide]
solubility [1]: ~53 mg/mL (≈ 94 mM)

CCc1c2c(nc3ccccc13)-c1cc([C@@](O)(CC)C(=O)NCCN(C)C)c(COC(=O)N3CCN(CC(=O)NC(C)C)CC3)c(=O)n1C2 [Compound 16, 7-Ethyl-17-(4-isopropylaminocarbonylmethyl-piperazino)-carbamoyloxy-camptothecin-21-(2-dimethylamino)ethylamide]
solubility [1]: ≥ 33 mg/mL

CCc1c2c(nc3ccccc13)-c1cc([C@@](O)(CC)C(=O)NCCN(C)C)c(COC(=O)OC)c(=O)n1C2 [Compound 18, 7-Ethyl-17-methoxycarbonyloxycamptothecin-21-(2-dimethylamino)ethylamide]
solubility [1]: ≥ 50 mg/mL

CCOC(=O)OCc1c([C@@](O)(CC)C(=O)NCCN(C)C)cc2n(c1=O)Cc1c-2nc2ccccc2c1CC [Compound 19, 7-Ethyl-17-ethoxycarbonyloxycamptothecin-21-(2-dimethylamino)ethylamide]
solubility [1]: ≥ 52 mg/mL

CCCOC(=O)OCc1c([C@@](O)(CC)C(=O)NCCN(C)C)cc2n(c1=O)Cc1c-2nc2ccccc2c1CC [Compound 20, 7-Ethyl-17-n-propoxycarbonyloxycamptothecin-21-(2-dimethylamino)ethylamide]
solubility [1]: ≥ 52 mg/mL

CCCCOC(=O)OCc1c([C@@](O)(CC)C(=O)NCCN(C)C)cc2n(c1=O)Cc1c-2nc2ccccc2c1CC [Compound 21, 17-n-Butoxycarbonyloxy-7-ethyl-camptothecin-21-(2l-dimethylamino)ethylamide]
solubility [1]: ≥ 54 mg/mL

CCc1c2c(nc3ccccc13)-c1cc([C@@](O)(CC)C(=O)NCCN(C)C)c(COC(C)=O)c(=O)n1C2 [Compound A, 7-Ethyl-17-acetoxycamptothecin-21-(2-dimethylamino)ethylamide hydrochloride, reference compound]
Amount of the compound in test solution ([3]; pH 5.4, 3 hr later): 126 µg/mL | Amount of the compound in test solution ([3]; pH 5.4, 24 hr later): 124 µg/mL | Amount of the compound in test solution ([3]; pH 5.4, at the time of dissolution): 126 µg/mL | Amount of the compound in test solution ([3]; pH 7.0, 3 hr later): 110 µg/mL | Amount of the compound in test solution ([3]; pH 7.0, 24 hr later): 107 µg/mL | Amount of the compound in test solution ([3]; pH 7.0, at the time of dissolution): 110 µg/mL | Amount of the compound in test solution ([3]; pH 10.0, 3 hr later): 79 µg/mL | Amount of the compound in test solution ([3]; pH 10.0, 24 hr later): 16 µg/mL | Amount of the compound in test solution ([3]; pH 10.0, at the time of dissolution): 102 µg/mL | degraded at 24 h ([3]; phosphate buffer, pH 10.0, after 24 hr, read-out: hydrolyzed in the aqueous solution): 84%

CCc1c2c(nc3ccccc13)-c1cc(C(O)(CC)C(=O)[O-])c(CO)c(=O)n1C2.[Na+] (stereo not drawn) [Reference Compound, 7-ethylcamptothecin sodium salt, reference compound]
Anti-tumor activity (T/C%) ([2]; Table 2, total dose 3.13 mg/kg): 129% | Anti-tumor activity (T/C%) ([2]; Table 2, total dose 6.25 mg/kg): 142% | Anti-tumor activity (T/C%) ([2]; Table 2, total dose 12.5 mg/kg): 153% | Anti-tumor activity (T/C%) ([2]; Table 2, total dose 25 mg/kg): 211% | Anti-tumor activity (T/C%) ([2]; Table 2, total dose 50 mg/kg): 266% | Anti-tumor activity: fraction in parentheses after T/C% (meaning not given) ([2]; Table 2, total dose 100 mg/kg): 2/6 | Anti-tumor activity (T/C%) ([2]; Table 2, total dose 100 mg/kg): 339% | Anti-tumor activity: fraction in parentheses after T/C% (meaning not given) ([2]; Table 2, total dose 200 mg/kg): 1/6 | Anti-tumor activity (T/C%) ([2]; Table 2, total dose 200 mg/kg): 303% | Anti-tumor activity (T/C%) ([2]; Table 4, total dose 3.13 mg/kg): 126% | Anti-tumor activity (T/C%) ([2]; Table 4, total dose 6.25 mg/kg): 146% | Anti-tumor activity (T/C%) ([2]; Table 4, total dose 12.5 mg/kg): 151% | Anti-tumor activity (T/C%) ([2]; Table 4, total dose 25 mg/kg): 215% | Anti-tumor activity (T/C%) ([2]; Table 4, total dose 50 mg/kg): 249% | Anti-tumor activity: fraction in parentheses after T/C% (meaning not given) ([2]; Table 4, total dose 100 mg/kg): 4/6 | Anti-tumor activity (T/C%) ([2]; Table 4, total dose 100 mg/kg): 513% | Anti-tumor activity: fraction in parentheses after T/C% (meaning not given) ([2]; Table 4, total dose 200 mg/kg): 1/6 | Anti-tumor activity (T/C%) ([2]; Table 4, total dose 200 mg/kg): 362%
